The source of these data is PMC10482825 (Scientific Reports, 2023).

The test system of assay [1] is the different tested pathogens. Format: cell-based. Conditions: span over tested pathogens, undetected values disregarded. The text has this:
(§1) The microbial strains used in this study were Bacillus subtilis (ATCC, 11774), Candida albicans (TIMM, 1768), Enterococcus faecalis (ATCC, 33186), Escherichia coli (ATCC, 11775), Klebsiella pneumoniae (ATCC, 13883), Methicillin-resistant Staphylococcus aureus (ATCC, BAA-41), Pseudomonas aeruginosa (ATCC, 10145), Salmonella enterica (ATCC, 14028), Serratia marcescens (ATCC, 13880), Staphylococcus aureus (ATCC, 25923) and Vibrio parahaemolyticus (ATCC, 17802). All microbial strains were cultivated overnight at 37 °C and 200 rpm, then subcultured and incubated for 3 h under the same incubation conditions to obtain the mid-logarithmic growth phase. The cultivated cells were washed twice with 10 mM Tris–HCl containing 5 mM D-glucose at pH 7.4 and suspended in the same buffer to be used in different assays, as previously described.
As a conclusive quantitative assessment, broth microtiter assay was used to determine the MIC values of each cryptide against B. subtilis, MRSA, S. enterica, P. aeruginosa, V. parahaemolyticus and C. albicans by following the guidelines of the Clinical and Laboratory Standards Institute (CLSI)[67], with slight modifications. Eighty microliters of 5 × 10^4 CFU/ml of each pathogen were dispensed into a 96-well polypropylene microtiter plate. The wells were then treated with 20 µl of serially diluted cryptides for 3 h at 37 °C. Gentamicin was used for positive controls at 0.2 mg/ml while an equivalent volume of acidified water was used for negative controls. The plates were then topped up with a final concentration of 1 × Mueller Hinton Broth (MHB) and incubated for 18 h under the same incubation conditions. MIC was detected as the lowest concentration of each cryptide that prevents the optically detectable microbial growth at OD = 600 nm.

The subject of the next assay is MRSA mature biofilm. Briefly: Antibiofilm microtiter plate assay (mature biofilm, crystal violet). Particulars: absorbance 600 nm, mean ± SD. Format: cell-based, Methicillin-resistant Staphylococcus aureus (ATCC, BAA-41). Here is the method:
The antibiofilm activities of the selected cryptides against S. enterica and MRSA mature biofilms were examined by microtiter plate assay as previously described, with slight modification. During the mid-logarithmic phase, S. enterica and MRSA were suspended at the density of 1.7 × 10^8 CFU/ml in MHB. Then 100 µl of each bacterial suspension was dispensed into a vinyl 96 U-shaped-well plate and incubated overnight at 37 °C. The mature biofilms were washed with 10 mM Tris–HCl containing 5 mM D-glucose at pH 7.4 and treated for 8 h with 100 µl of two-fold serially diluted cryptides, under the same incubation conditions. A sterile MHB medium was used as the positive control while an equivalent volume of acidified water was used to treat the negative controls. The treated biofilms were washed twice with the same washing buffer and stained with 0.1% crystal violet for 15 min followed by rinsing with sterile distilled water twice and then dried for 30 min at 37 °C. The stain was dissolved with 33% acetic acid and transferred to an optically clear 96-well flat bottom plate which was then measured at 600 nm.
Table S.4 Antibiofilm activities of the selected Cryptides against S. enterica and MRSA. Microbial cells were suspended at 1.7 X 10^8 CFU/ml density, during the mid-logarithmic phase in MHB. Then, 96 U-shaped -well plates were inoculated with 100 µl of microbial suspension and incubated for 48 h at 37 °C. The formed biofilms were washed with 10 mM Tris-HCl and treated with 100 µl of different concentrations of each peptide for 24 h. The treated biomasses were washed and fixed with methanol for 15 min at -20 °C before staining with 0.1 % crystal violet. The stained biofilms were dissolved in 100 µl of 33 % acetic acid and the quantities of crystal violet stains were determined by measuring absorbance at 600 nm as an indicator of the remaining biomass after treatment. Untreated cells were used as negative control [indicating 100 % biofilm integrity] while the sterile medium was used as a positive control [indicating 0 % biofilm integrity].
S. enterica MRSA S. enterica MRSA S. enterica MRSA S. enterica MRSA S. enterica MRSA

The test system of another assay is P. aeruginosa. The experiment in a line: Radial diffusion assay. The format is cell-based, Pseudomonas aeruginosa (ATCC, 10145). Particulars: 5 µl of 500 µM per 3 mm well, 37 °C, mean ± SD.
Excerpt: as §1
(§2) The antimicrobial activity spectra of the selected cryptides were screened against all the mentioned microbial pathogens, except V. parahaemolyticus, by radial diffusion assay as previously described, with slight modifications. […] The plates were then incubated for 18 h, and the antimicrobial activities were measured in the absolute unit (AU), as previously described. […]
(§3) plate. The plates were then incubated for 12 h at 37 °C and antimicrobial activities were measured in the term of absolute unit (A.U). […]

In another assay the test system is S. epidermidis. Briefly: Radial diffusion assay. Format: cell-based. Particulars: 5 µl of 500 µM per 3 mm well, 37 °C, mean ± SD.
Excerpt: The antimicrobial activity spectra of the selected cryptides were screened against all the mentioned microbial pathogens, except V. parahaemolyticus, by radial diffusion assay as previously described, with slight modifications. We aimed to test different categories of pathogens on the WHO global priority due to their growing resistance to the available antibiotics such as P. aeruginosa, E. coli and K. pneumoniae in the critical category and Salmonella ssp. and S. aureus in the high category. Briefly, a total of 4 × 10^6 CFU of each pathogen was inoculated in 10 mL of an underlay agarose gel [0.03% w/v tryptone soy broth (TSB) medium, 1% w/v agarose and 0.02% v/v Tween 20 in 10 mM Tris–HCl] that was then poured into a 100-mm petri dish. After agarose solidification, 3 mm-diameter wells were punched by a sterile cork borer and 5 µl of 500 µM stock solution from each cryptide was added to each well. Melittin and acidified water were used as positive and negative controls, respectively. […] The plates were then incubated for 18 h, and the antimicrobial activities were measured in the absolute unit (AU), as previously described. […]
as §3

The next assay deals with B. subtilis. The experiment in a line: Radial diffusion assay. The format is cell-based, Bacillus subtilis (ATCC, 11774). Conditions: 5 µl of 500 µM per 3 mm well, 37 °C, mean ± SD.
Excerpt: as §1, §2, §3

The subject of the next assay is K. pneumoniae. The experiment in a line: Radial diffusion assay. The format is cell-based, Klebsiella pneumoniae (ATCC, 13883). Particulars: 5 µl of 500 µM per 3 mm well, 37 °C, mean ± SD.
Excerpt: as §1, §2, §3

Another assay deals with V. parahaemolyticus. Briefly: Micro-broth dilution MIC / MBC. Format: cell-based, Vibrio parahaemolyticus (ATCC, 17802). Conditions: 37 °C.
Excerpt: as §1
As a conclusive quantitative assessment, broth microtiter assay was used to determine the MIC values of each cryptide against B. subtilis, MRSA, S. enterica, P. aeruginosa, V. parahaemolyticus and C. albicans by following the guidelines of the Clinical and Laboratory Standards Institute (CLSI)[67], with slight modifications. […] MIC was detected as the lowest concentration of each cryptide that prevents the optically detectable microbial growth at OD = 600 nm.
In general terms: In broth dilution the organism is exposed to a series of concentrations in liquid medium.

The next assay has as its system E. coli K-1. Briefly: Radial diffusion assay. Conditions: 5 µl of 500 µM per 3 mm well, 37 °C, mean ± SD. The format is cell-based, Escherichia coli (ATCC, 11775).
Excerpt: as §1, §2, §3

The subject of the next assay is S. marcescens. The experiment in a line: Radial diffusion assay. The format is cell-based, Serratia marcescens (ATCC, 13880). Conditions: 5 µl of 500 µM per 3 mm well, 37 °C, mean ± SD.
Excerpt: as §1, §2, §3

The subject of the next assay is MRSA. Briefly: Radial diffusion assay. The format is cell-based, Methicillin-resistant Staphylococcus aureus (ATCC, BAA-41). Conditions: 5 µl of 500 µM per 3 mm well, 37 °C, mean ± SD.
Excerpt: as §1, §2, §3

Values joined by “and” are separate entries in the source; they are usually repeats but may differ in a detail not shown here. Equal entries are not always repeated. Where a SMILES comes first, the peptide text is derived from it.

With `CC(C)C[C@H](NC(=O)[C@H](CCCNC(=N)N)NC(=O)[C@H](Cc1c[nH]c2ccccc12)NC(=O)[C@H](CCCNC(=N)N)NC(=O)[C@H](CC(C)C)NC(=O)[C@@H](N)Cc1ccccc1)C(=O)N[C@@H](CCCCN)C(=O)N[C@@H](Cc1ccccc1)C(=O)N[C@@H](CCCCN)C(=O)N[C@@H](CO)C(=O)N[C@@H](CCCCN)C(=O)N[C@H](C(=O)N[C@@H](Cc1c[nH]c2ccccc12)C(=O)N[C@@H](CS)C(=O)N1CCC[C@H]1C(=O)O)C(C)C` [AD7] (H-FLRWRLKFKSKVWCP-OH), in [1], the “MBC values, range against the different tested pathogens” value was 0.39 ~ 25 µM and the “MIC values, range against the different tested pathogens” value is reported as 0.39 ~ 6.25 µM.
With “RHCLRSKRPPNVCPH [AD4, cationic cryptide from P. vannamei precursor DN34505 (Pl-crustin 2), chemically synthesised]”, in the assay with MRSA mature biofilm, the “Biofilm eradication MRSA, 12.5 µM” value was found to be 0%; the “Biofilm eradication MRSA, 25 µM” value worked out at 0.86 ± 3.1%; the “Biofilm eradication MRSA, 50 µM” value stood at 11.53 ±1.4%; the “Biofilm eradication MRSA, 100 µM” value is given as 27.05 ±1.3%. The “Biofilm eradication MRSA, 200 µM” value with MRSA mature biofilm was 35.86 ± 2.5% and 35.8%. Further, the “Antimicrobial activity (inhibition zone) P. aeruginosa” value with P. aeruginosa came to 0 A.U. For the same molecule, the “Antimicrobial activity (inhibition zone) S. epidermidis” value in the assay on S. epidermidis came to 9 ± 0 A.U. Further, in the assay on B. subtilis, the “Antimicrobial activity (inhibition zone) B. subtilis” value is 13.8± 0.7 A.U. In addition, in the assay on K. pneumoniae, the “Antimicrobial activity (inhibition zone) K. pneumoniae” value is listed as 0 A.U. Besides, in the assay on V. parahaemolyticus (20 µl of wells without growth on agar, 18 h), the “MBC (µM) V. parahaemolyticus” value is listed as over 50 µM. Besides, in the assay with V. parahaemolyticus (micro-broth dilution, 3 h peptide treatment then MHB 18 h, OD 600 nm), the “MIC (µM) V. parahaemolyticus” value is over 50 µM. Moreover, the “Antimicrobial activity (inhibition zone) E. coli K-1” value in the assay with E. coli K-1 was 7.7 ± 1 A.U. For the same molecule, the “Antimicrobial activity (inhibition zone) S. marcescens” value in the assay on S. marcescens is on record as 0 A.U. For the same molecule, the “Antimicrobial activity (inhibition zone) MRSA” value in the assay on MRSA turned out to be 12.2 ± 1.1 A.U.
